Series [1] is described as follows: Moisture sorption analysis (DVS). The format is physicochemical. Conditions: for moisture uptake (DVS): 25° C.
A short description of series [2]: Moisture sorption analysis (DVS). The format is physicochemical. The conditions noted are these: for hygroscopicity by DVS isotherm / moisture uptake (DVS): 25° C. On the procedure: Moisture Sorption Analysis-Moisture sorption isotherm was determined using a DVS Endeavour at 25° C. in an aluminum pan with water as the solvent (closed loop) and nitrogen gas flow at 200 sccm. The sample was analyzed from 40% to 0% to 90% to 0% to 90% to 0% to 40% RH in 5% RH steps.

Series [3] can be described thus: PK properties of Form 1E in male dogs under fasted and fed conditions. The format is in vivo. Conditions: for AUC(0-inf) / AUC(0-t) / CL/F / Cmax / MRT / Tmax / half-life: male, dog, plasma, po; for half-life: read-out: t1/2, z (converted).
The nature of series [4]: Physical and chemical stability of Form 1E. The format is physicochemical.
The nature of series [5]: Single dose dog PK, Form 1E compared to Compound A free base. The format is in vivo, dogs. The conditions noted are these: FIG. 5C. The protocol:
The pharmacokinetic (PK) properties of Form 1E was evaluated in dogs.

Series [6] can be described thus: Comparative solubilities of Form 1 and Form 1E in biorelevant media. It is filed as physicochemical. Conditions: for solubility: read-out: Solubility Conc.
The mark [7] stands for this setting: 30 mg/kg, pH 2, male dogs, Study A, 30.0 mg/kg p.o., Vehicle 1 (water/malonic acid pH 2.0), Fasted.
Where [8] appears, read: 30 mg/kg, pH 2, male dogs, Study A, 30.0 mg/kg p.o., Vehicle 1 (water/malonic acid pH 2.0), Fed (kibble).
Where [9] appears, read: 50 mg/kg, pH 7, male dogs, Study B, Vehicle 2 (water/MSA pH7.0), Fasted.
The mark [10] stands for this setting: 50 mg/kg, pH 7, male dogs, Study B, Vehicle 2 (water/MSA pH7.0), Fed (high fat).

In brackets after ≈: the same amount, converted by molar mass. Read-outs that look alike come from different tables or passages of the source.

With `O=C1OCCCc2c(Cl)cc3[nH]ncc3c2-c2ncc3c(nc(OC[C@@]45CCCN4C[C@H](F)C5)nc3c2F)N2CCOC[C@H](C2)O1` [Form 1A], in series [1] (at 95% relative humidity), the “moisture uptake (DVS)” value turned out to be 5.4 wt. %. For the same compound, the “hygroscopicity by DVS isotherm” value in series [2] was “hygroscopic”.

As for `O=C1OCCCc2c(Cl)cc3[nH]ncc3c2-c2ncc3c(nc(OC[C@@]45CCCN4C[C@H](F)C5)nc3c2F)N2CCOC[C@H](C2)O1` [Form 1B], the “moisture uptake (DVS)” value in series [1] (at 95% relative humidity) worked out at 4.7 wt. %. Also, in series [2], the “hygroscopicity by DVS isotherm” value is given as “hygroscopic”.

In the case of `O=C1OCCCc2c(Cl)cc3[nH]ncc3c2-c2ncc3c(nc(OC[C@@]45CCCN4C[C@H](F)C5)nc3c2F)N2CCOC[C@H](C2)O1` [Form 1E], the “plasma exposure (Cmax and AUC), fed versus fasted conditions” value in series [3] (dogs, FIGS. 5D and 5E, kibble or high fat diet) is reported as “did not show a difference”. For the same compound, in series [3] (dogs, prior studies, 50 mg/kg and a high fat diet), the emesis entry is recorded as “suffered from emesis”. The AUC(0-inf) in series [3] (setting [7]) stood at 14.2 µM·h; in series [3] (setting [8]), 17 µM·h; in series [3] (setting [9]), 3.54 µM·h; in series [3] (setting [10]), 3.91 µM·h. Moreover, the AUC(0-t) in series [3] (setting [7]) amounted to 14.1 µM·h; in series [3] (setting [8]), 17 µM·h; in series [3] (setting [9]), 3.53 µM·h; in series [3] (setting [10]), 3.89 µM·h. Moreover, the CL/F in series [3] (setting [7]) is 73.5 mL/min/kg; in series [3] (setting [8]), 55.8 mL/min/kg; in series [3] (setting [9]), 783 mL/min/kg; in series [3] (setting [10]), 1160 mL/min/kg. For the same compound, the Cmax in series [3] (setting [7]) was 5820 nM; in series [3] (setting [8]) it was 4290 nM; in series [3] (setting [9]) it was 1350 nM; in series [3] (setting [10]), 1050 nM. Further, the MRT in series [3] (setting [7]) amounted to 3.16 h; in series [3] (setting [8]), 4.14 h; in series [3] (setting [9]) it was 3.79 h; in series [3] (setting [10]), 4.26 h. Moreover, the Tmax turned out to be 0.312 h in series [3] (setting [7]), 1.62 h in series [3] (setting [8]), 0.9 h in series [3] (setting [9]) and 1.5 h in series [3] (setting [10]). Moreover, the half-life is 2.67 h in series [3] (setting [7]); 2.96 h in series [3] (setting [8]); 3.47 h in series [3] (50 mg/kg, pH 7, male dogs, Study B, 50.0 mg/kg, Vehicle 2 (water/MSA pH7.0), Fasted); 4.83 h in series [3] (50 mg/kg, pH 7, male dogs, Study B, 50.0 mg/kg, Vehicle 2 (water/MSA pH7.0), Fed (high fat)). The physical stability entry in series [4] (accelerated conditions) is on record as “physically stable”. The “chemically stable for” value in series [4] (at 5° C.) is given as “more than 2 years”. The “improvement in plasma concentration compared to Compound A free base” value in series [5] is recorded as around 2 ×. The solubility in series [6] (FaSSGF, pH 1.99, fassgf or other biorelevant) was 5990 µg/mL (≈ 9130 µM); in series [6] (FaSSIF, pH 4.86, fassif), 1730 µg/mL (≈ 2640 µM); in series [6] (FeSSIF, pH 4.58, fessif) it was 2500 µg/mL (≈ 3810 µM); in series [6] (PBS, pH 4.55, aqueous buffer) it was 1300 µg/mL (≈ 1980 µM); in series [6] (water, H2O, pH 3.93) it was 7760 µg/mL (≈ 11800 µM). Moreover, in series [6] (several media, compared with Form 1), the “solubility in several media relative to Form 1” value was “higher solubility”. In addition, the Equilibrium crystal form entry in series [6] (solubility sample in FaSSGF), in series [6] (solubility sample in FaSSIF), in series [6] (solubility sample in FeSSIF), in series [6] (solubility sample in H2O) and in series [6] (solubility sample in PBS) was “Form 1E” in each case. In addition, in series [2], the “hygroscopicity by DVS isotherm” value is “non-hygroscopic”. Further, the “moisture uptake (DVS)” value in series [2] (at 90% relative humidity) is reported as 0.6 wt. %. Also, the “hygroscopicity compared to all other forms” value in series [2] (compared to all other solid forms of Compound A) is on record as “lowest hygroscopicity”.

`O=C1OCCCc2c(Cl)cc3[nH]ncc3c2-c2ncc3c(nc(OC[C@@]45CCCN4C[C@H](F)C5)nc3c2F)N2CCOC[C@H](C2)O1` [Form 1]: the solubility in series [6] (FaSSGF, pH 2.06, fassgf or other biorelevant) turned out to be 4420 µg/mL (≈ 6740 µM); in series [6] (FaSSIF, pH 7.15, fassif) it was 35 µg/mL (≈ 53.3 µM); in series [6] (FeSSIF, pH 5.51, fessif), 560 µg/mL (≈ 854 µM); in series [6] (PBS, pH 7.04, aqueous buffer) it was 10 µg/mL (≈ 15.2 µM); in series [6] (water, H2O, pH 8.73) it was 0.3 µg/mL (≈ 0.457 µM). Also, the Equilibrium crystal form result in series [6] (solubility sample in FaSSGF), in series [6] (solubility sample in FaSSIF), in series [6] (solubility sample in FeSSIF), in series [6] (solubility sample in H2O) and in series [6] (solubility sample in PBS) was “Form 1” in each case.

Regarding `O=C1OCCCc2c(Cl)cc3[nH]ncc3c2-c2ncc3c(nc(OC[C@@]45CCCN4C[C@H](F)C5)nc3c2F)N2CCOC[C@H](C2)O1` [Form A1-A], the “hygroscopicity as per TGA and XRPD analysis” value in series [1] (judged from TGA and XRPD, no DVS reported) is given as “hygroscopic”.

Take `O=C1OCCCc2c(Cl)cc3[nH]ncc3c2-c2ncc3c(nc(OC[C@@]45CCCN4C[C@H](F)C5)nc3c2F)N2CCOC[C@H](C2)O1` [Form C1]: the “behaviour in DVS at 95% relative humidity” value in series [1] (at 95% relative humidity) is listed as “deliquescence”. In addition, in series [2], the “hygroscopicity by DVS isotherm” value was “hygroscopic”. For the same compound, the “moisture uptake (DVS)” value in series [2] (at 85% relative humidity) is 4.0 wt. %.

Regarding `O=C1OCCCc2c(Cl)cc3[nH]ncc3c2-c2ncc3c(nc(OC[C@@]45CCCN4C[C@H](F)C5)nc3c2F)N2CCOC[C@H](C2)O1` [Form C-P], in series [2], the “hygroscopicity by DVS isotherm” value is reported as “hygroscopic”. Also, the “moisture uptake (DVS)” value in series [2] (at 80% RH) came out at 3.08 wt. %.

For orientation: AUC(0-inf) means total exposure, with the tail of the curve extrapolated. A higher AUC(0-inf) goes with more exposure. The AUC(0-t) is exposure summed from dosing to a finite time, without extrapolation to infinity. High values mean more exposure, low ones less exposure. One may read the CL/F as the apparent clearance, not corrected for the fraction that reaches the circulation. Broadly, the Cmax is the maximum level reached in the sampled fluid or tissue. One may read the MRT as a mean duration of stay, worked out from the concentration-time curve. A word on the Tmax: it is the time at which the peak concentration occurs. One may read the solubility as how much of the substance goes into solution per volume.

For the origin of these results see patent publication US20260184727A1, “SOLID FORMS OF MACROCYCLIC COMPOUNDS AND USES THEREOF” (AMGEN INC., priority 2024, published 2026).
